This is an account of results in patent US8999956B2, “N-[(het)arylalkyl)] pyrazole(thio)carboxamides and their heterosubstituted analogues” (Bayer Intellectual Property GmbH, priority 2010, dated 2015).

Data set [1] relates to Sphaerotheca fuliginea. The data set can be described thus: In vivo preventive test on Sphaerotheca fuliginea (cucumber). The following applies: 500 ppm of active ingredient, evaluated 7 days after inoculation. Put shortly: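 Young cucumber plants sprayed with compound (in DMF with alkylarylpolyglycolether emulsifier, diluted in water) at the stated application rate. Inoculated one day later with aqueous Sphaerotheca fuliginea spore suspension. Plants then held in greenhouse at approximately 23° C and approximately 70% relative humidity.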

Data set [2] has as its system Alternaria solani. The data set can be described thus: In vivo preventive test on Alternaria solani (tomato). The following applies: 500 ppm of active ingredient, evaluated 7 days after inoculation. The gist of the method:
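Young tomato plants sprayed preventively with compound in DMF/alkylarylpolyglycolether emulsion diluted in water to the stated rate. Inoculation with aqueous Alternaria solani spore suspension one day after treatment.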

For data set [3], the system named is Pyrenophora teres. The data set is described as follows: In vivo preventive test on Pyrenophora teres (barley). The following applies: 500 ppm of active ingredient, evaluated 7-9 days after inoculation. The gist of the method: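 Compound formulated in N,N-dimethylformamide with alkylaryl polyglycol ether emulsifier and diluted in water, then sprayed on young barley plants at the stated application rate. Plants inoculated one day later with aqueous Pyrenophora teres spore suspension, testing preventive protection.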

For data set [4], the system named is Septoria tritici. The data set can be described thus: In vivo preventive test on Septoria tritici (wheat). The following applies: 500 ppm of active ingredient, evaluated 21 days after inoculation. Put shortly: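 Compound formulated in N,N-dimethylacetamide with alkylaryl polyglycol ether emulsifier and diluted in water to the stated rate. Young wheat plants sprayed preventively; after the deposit dried, they were inoculated with a Septoria tritici spore suspension.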

The test system of data set [5] is Blumeria graminis fsp. hordei. The data set is described as follows: In vivo preventive test on Blumeria graminis (barley). The following applies: 500 ppm of active ingredient, evaluated 7 days after inoculation. As to the method:
(§1) Solvent: 49 parts by weight of N,N-dimethylacetamide Emulsifier: 1 part by weight of alkylaryl polyglycol ether To produce a suitable preparation of active compound, 1 part by weight of active compound or active compound combination is mixed with the stated amounts of solvent and emulsifier, and the concentrate is diluted with water to the desired concentration. To test for preventive activity, young plants are sprayed with the preparation of active compound or active compound combination at the stated rate of application. After the spray coating has been dried, the plants are dusted with spores of Blumeria graminis fsp. hordei.

For data set [6], the system named is Fusarium nivale (var. majus). The data set is described as follows: In vivo preventive test on Fusarium nivale (wheat). The following applies: 500 ppm of active ingredient, evaluated 5 days after inoculation. The protocol:
as §1, with “slightly injured by using a sandblast and afterwards they are sprayed” for “dusted”, “a conidia suspension” for “spores”, “Fusarium nivale (var. majus).” for “Blumeria graminis fsp. hordei.”

Data set [7] deals with Puccinia triticina. The data set is described as follows: In vivo preventive test on Puccinia triticina (wheat).
Data set [8] deals with Cochliobolus miyabeanus. The data set is described as follows: In vivo protective test on Cochliobolus miyabeanus (rice). The following applies: Table M, 250 ppm of active ingredient, evaluated 4 days after inoculation.
The subject of data set [9] is Pyricularia oryzae. The following applies: in vivo.
Data set [10] has as its system aflatoxines produced by Aspergillus parasiticus. The data set is described as follows: microbe, parasite or virus in culture. It counts as cell-based.
Data set [11] concerns Aspergillus parasiticus. The data set can be described thus: microbe, parasite or virus in culture. Type of data set: cell-based.
The nature of data set [12]: log P by HPLC on reversed-phase column (EEC Directive 79/831 Annex V.A8). It counts as physicochemical. The protocol:
In table 1, the log P values were determined in accordance with EEC Directive 79/831 Annex V.A8 by HPLC (High Performance Liquid Chromatography) on a reversed-phase column (C18), using the method described below: Temperature: 40° C.; […]

Data set [13] deals with Venturia inaequalis. The data set can be described thus: In vivo preventive test on Venturia inaequalis (apple scab). The following applies: 100 ppm of active ingredient, evaluated 10 days after inoculation. Put shortly:
(§2)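 Young plants sprayed preventively at the stated application rate with compound dissolved in acetone/N,N-dimethylacetamide plus alkylaryl polyglycol ether emulsifier and diluted with water to the desired concentration.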

The subject of data set [14] is Leptosphaeria nodorum. The data set can be described thus: In vivo preventive test on Leptosphaeria nodorum (wheat). The following applies: 500 ppm of active ingredient, evaluated 7-9 days after inoculation. Put shortly: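 Compound formulated in N,N-dimethylacetamide with alkylaryl polyglycol ether emulsifier and diluted with water. Young wheat plants were sprayed at the stated application rate, then inoculated one day later with an aqueous spore suspension of L. nodorum.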

Data set [15] deals with Phakopsora pachyrhizi. The data set can be described thus: In vivo protective test on Phakopsora pachyrhizi (soybeans). The following applies: Table N, 250 ppm of active ingredient, evaluated 11 days after inoculation.
The subject of data set [16] is Uromyces appendiculatus. The data set can be described thus: In vivo preventive test on Uromyces appendiculatus (beans). The following applies: 100 ppm of active ingredient, evaluated 10 days after inoculation. Put shortly:
as §2

The subject of data set [17] is Botrytis cinerea. The data set is described as follows: In vivo preventive test on Botrytis cinerea (beans). The gist of the method:
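Young bean plants sprayed preventively with compound in acetone/dimethylacetamide/emulsifier diluted in water; after drying, each leaf inoculated with 2 agar pieces bearing Botrytis cinerea. Kept dark at 20° C, 100% humidity; lesion size scored at 2 days as % efficacy (0% = untreated, 100% = no disease).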

[18] abbreviates: Table K, 500 ppm of active ingredient, evaluated 8 days after inoculation.
Where [19] appears, read: 500 ppm of active ingredient, lesion size 2 days after inoculation.
[20] abbreviates: Table L, 500 ppm of active ingredient, lesion size 2 days after inoculation.

Where two headings read alike, the source gives them in different places.

As for `CCCCC1CCCCC1NC(=O)c1c(C(F)F)nn(C)c1F` (single isomer, unassigned) [Example 330], the Efficacy in data set [1] came out at 88%; in data set [2] it was 95%; in data set [3] it was 100%; in data set [4], 78%; in [5] it was 100%; in data set [6], 100%. The Efficacy in data set [7] (setting [18]) stood at 80%; in [8], 85%; in data set [9] it was 80%. For the same compound, the “% Inhibition of Aflatoxin at 50 μM” value in data set [10] is on record as 100%. In data set [11] (50 µM), the “% Inhibition of fungal growth at 50 μM” value is 87%. Further, in data set [12], the logP is recorded as 4.06 isomer B.
For the compound `CC(C)CCC1CCCCC1NC(=O)c1c(C(F)F)nn(C)c1F` (centres unmarked) [Example 333], the Efficacy in data set [1] turned out to be 100%; in data set [2] it was 100%; in [3], 100%; in data set [13] it was 99%; in data set [4], 100%; in data set [5], 100%. Besides, the Efficacy in data set [6] is 100%; in data set [14], 80%; in [7] (setting [18]), 90%; in data set [15], 97%. In addition, in data set [10], the “% Inhibition of Aflatoxin at 50 μM” value worked out at 100%. The “% Inhibition of fungal growth at 50 μM” value in data set [11] is listed as 92%. Also, the logP in [12] was determined as 4.22.
For the compound `Cn1nc(C(F)F)c(C(=O)NC2CCCCC2CCC(C)(C)C)c1F` (single isomer, unassigned) [Example 358], the Efficacy is 100% in data set [1]; 100% in [2]; 100% in [3]; 100% in data set [13]; 80% in data set [4]; 100% in data set [5]. Besides, the figures for the Efficacy in data set [6], in [7] (setting [18]) and in data set [15] were 100%, 100% and 95%, respectively. Moreover, the logP in [12] was determined as 4.51 isomer B.
For `CC(CCc1c(Cl)cc(Cl)cc1Cl)NC(=O)c1c(C(F)F)nn(C)c1F` (centres unmarked) [Example 215], the Efficacy worked out at 100% in data set [1]; 95% in [2]; 100% in data set [3]; 90% in data set [4]; 100% in data set [5]; 71% in data set [6]. Further, the Efficacy in [8] and in data set [9] was 98% in each case. Moreover, the “% Inhibition of Aflatoxin at 50 μM” value in data set [10] is reported as 100%. Moreover, the “% Inhibition of fungal growth at 50 μM” value in [11] came out at 100%. Also, the logP in data set [12] was found to be 4.29.
`CC(CCc1c(Cl)cc(Cl)cc1Cl)NC(=O)c1c(C(F)F)nn(C)c1Cl` (centres unmarked) [Example 216]: the Efficacy is 100% in data set [1]; 100% in data set [3]; 100% in data set [4]; 93% in data set [6]; 78% in data set [7] (setting [18]); 90% in data set [8]. Also, the Efficacy in data set [9] was 95%. In data set [10], the “% Inhibition of Aflatoxin at 50 μM” value is 100%. In [11], the “% Inhibition of fungal growth at 50 μM” value turned out to be 100%. Further, in data set [12], the logP worked out at 4.53.
For the compound `Cn1nc(C(F)F)c(C(=O)NC2CCCCC2CC[Si](C)(C)C)c1F` (centres unmarked) [Example 353], the Efficacy was 95% in [2]; 95% in [3]; 99% in [13]; 80% in data set [4]; 90% in [5]; 100% in data set [6]. Further, the Efficacy in [7] (setting [18]) came to 70%; in data set [15], 85%. Moreover, in [10], the “% Inhibition of Aflatoxin at 50 μM” value was determined as 99%. In data set [11], the “% Inhibition of fungal growth at 50 μM” value worked out at 85%. Besides, the logP in [12] was found to be 4.70.
As for `Cn1nc(C(F)F)c(C(=O)N(CC2CCCCC2c2ccccc2)C2CC2)c1F` (centres unmarked) [Example 240], the Efficacy in [2] is 100%; in [3] it was 100%; in data set [13] it was 100%; in data set [4], 100%; in data set [5] it was 100%; in data set [6], 71%. The Efficacy in [14] is on record as 70%; in data set [16], 100%; in data set [7] (setting [18]), 95%; in data set [17] (setting [19]), “at least 95%”; in [17] (Table L2, dose 500 ppm, comparison with des-fluoro analogues), 95%; in [17] (setting [20]), 95%. The Efficacy in data set [15] is 85%. Moreover, the “% Inhibition of Aflatoxin at 50 μM” value in [10] came to 100%. In addition, the “% Inhibition of fungal growth at 50 μM” value in [11] was 98%. In [12], this compound displayed a logP of 4.31.
Consider `Cn1nc(C(F)F)c(C(=O)N(CC2CCCCC2c2ccccc2Cl)C2CC2)c1F` (centres unmarked) [Example 241], for which the Efficacy in data set [1] came to 100%; in data set [2], 100%; in [3] it was 100%; in data set [13], 100%; in data set [4], 100%; in data set [14] it was 80%. Also, the Efficacy is 100% in data set [16], 100% in data set [7] (setting [18]), 99% in data set [17] (setting [20]) and 99% in [15]. In addition, the “% Inhibition of Aflatoxin at 50 μM” value in [10] amounted to 100%. Moreover, the “% Inhibition of fungal growth at 50 μM” value in [11] is reported as 97%. In addition, the logP in [12] is 4.67.
Regarding `CC(C)CC(C)C1CCCCC1NC(=O)c1c(C(F)F)nn(C)c1Cl` (single isomer, unassigned) [Example 334], the Efficacy is recorded as 100% in [13]; 100% in [4]; 90% in data set [5]; 93% in [6]; 100% in data set [16]; 100% in data set [15]. Besides, in [10], the “% Inhibition of Aflatoxin at 50 μM” value came out at 100%. The “% Inhibition of fungal growth at 50 μM” value in [11] (50 µM) is 90%. The compound further had a logP in data set [12] of 4.75 isomer A.
With `Cn1nc(C(F)F)c(C(=O)N(C2CC2)C2CCCC(c3ccccc3)C2)c1F` (centres unmarked) [Example 256], the Efficacy in data set [2] was determined as 93%; in data set [3] it was 100%; in [13], 100%; in data set [4], 100%; in [6], 100%; in [14], 95%. The Efficacy was 100% in data set [16]; “at least 95%” in data set [7] (500 ppm of active ingredient, evaluated 8 days after inoculation); 95% in [7] (Table K5, dose 500 ppm, comparison with des-fluoro analogues); 95% in [7] (setting [18]); “at least 90%” in [17] (setting [19]); 93% in data set [17] (Table L5, dose 500 ppm, comparison with des-fluoro analogues). For the same compound, the Efficacy stood at 93% in [17] (setting [20]) and 85% in [15]. Also, the “% Inhibition of Aflatoxin at 50 μM” value in data set [10] was determined as 96%. Besides, in [11], the “% Inhibition of fungal growth at 50 μM” value amounted to 79%. In [12], the logP came to 4.01.
